Patent publication US7507727B2, “Substituted quinobenzoxazine analogs and methods of using thereof” (Cylene Pharmaceuticals, Inc., priority 2003, dated 2009)
Where “and” joins values, the source holds several entries; their conditions need not be identical. Equal entries are not always repeated. Where two headings read alike, the source gives them in different places.

Key:
[1] = system: Salmonella typhimurium (TA97a, TA98, TA100, TA102, TA1535); settings: for FI / TA100 colony count (Rep 1-3) / TA100 colony count, Mean: dose range
Protocol: This Mutagenicity Assessment (Ames Assay) evaluated the potential of the test article extracts to induce histidine (his) reversion in S. typhimurium (his− to his+) or tryptophan (trp) reversion in E. coli (trp− to trp+) caused by base changes or frameshift mutations in the genome of tester organisms.
This plate incorporation assay was conducted with five strains of Salmonella typhimurium (TA97a, TA98, TA100, TA102, and TA1535) and one strain of Escherichia coli (WP2-uvrA^−) in the presence and absence of an exogenous mammalian activation system (S9). The test article was dissolved in 5% dextrose. A series of dilutions were then prepared in saline just prior to testing. A Range Finding Study was conducted for this assay to determine the appropriate doses for definitive mutagenicity assessment.
A stock solution of test article was prepared at 20.0 mg/mL as follows: 1.0 g test article was added to 15.0 mL of 0.1 HCl for 1 minute. The test article was stirred for 15 minutes at room temperature. Next 33.0 mL of deionized water was added and allowed to stir for 30 minutes. […] Lower doses were prepared by dilution in 5% dextrose from this stock immediately prior to use. To minimize any change of degradation, the test article solutions were kept on ice after preparation and until just prior to dosing procedures. The test article was administered in vitro, through a solvent compatible with the test system.
This assay has historically been used to detect mutation in a gene of a histidine requiring strain to produce a histidine independent strain or concordantly, to detect mutation in a gene of a tryptophan requiring strain to produce a tryptophan independent strain.
S. typhimurium strain TA1535 and E. coli strain Wp2-uvrA^− were received from American Type Culture Collection, Manassas, Va. […] All working stocks of test strains will be confirmed for genotypic markers and acceptable reversion rates.
Master plates of the tester strains were prepared from frozen working stocks. To create working cultures for each bacterial strain used in the assay, a single colony was transferred from the master plate into Oxoid nutrient broth and incubated, with shaking, at 37±2° C. until an optical density (at 650 nm) of 0.6-1.6 was reached. This overnight culture was used for the mutagenicity test and for genotypic confirmation. Genotype tests were performed.
For both the dose range and mutagenicity test, a top agar consisting of 0.6% Difco agar in 0.5% NaCl was melted and a solution of 0.5 mM L-histidine/0.5 mM biotin or 0.5 mM L-tryptophan was added to the melted top agar at a ratio of 10 mL per 100 mL agar, as required. The supplemented agar was aliquotted, 2 mL per tube and held at 45-47° C. To prepare the top agar for treatment, 0.1 mL of the test article or control, 0.1 mL of the bacterial culture and 0.5 mL of phosphate buffered saline were added to the molten agar. […] Metabolic activation was provided by adding 0.5 mL of the S9 mix in place of the PBS. […] All plates were counted using an automatic image analysis system. Negative control and test article treated plates were also examined for the presence of a bacterial lawn.
The in vitro metabolic activation system used in this assay was comprised of Sprague Dawley rat liver enzymes and a cofactor pool. […] Immediately prior to use, the S9 was thawed and mixed with a cofactor pool to contain 5% S9, 5 mM glucose 6-phosphate, 4 mM β-nicotine-adenine dinucleotide phosphate, 8 mM MgCl2 and 33 mM KCl in a 200 mM phosphate buffer at pH 7.4. The S9 was purchased from Moltox (Boone, N.C.) and maintained frozen at less than −70° C.
For the definitive assay, three dose levels were chosen ([…], and 5.0 mg/mL). This was equivalent to 2.0, 1.0, and 0.5 mg/plate. All treatments, including negative and positive control, were plated in triplicate against test strains TA97a, TA98, TA100, TA102, TA1535, and WP2-uvrA^− in the presence and absence of metabolic activation.

[2] = system: Chinese Hamster Ovary Cells (CHO); assay: In vitro chromosome aberration assay (incl. mitotic index); format: cell-based; settings: for % MI 3 HRS + S9 / % MI 20 HRS / % MI: average mitotic index; for % MI: first column (time not given)
[3] = TA100, with S9 activation, 0.125 mg/plate
[4] = TA100, with S9 activation, 0.25 mg/plate
[5] = TA100, with S9 activation, 0.5 mg/plate
[6] = TA100, with S9 activation, 1.0 mg/plate
[7] = TA100, with S9 activation, 2.0 mg/plate
[8] = TA100, without S9 activation, 0.125 mg/plate
[9] = TA100, without S9 activation, 0.25 mg/plate
[10] = TA100, without S9 activation, 0.5 mg/plate
[11] = TA100, without S9 activation, 1.0 mg/plate
[12] = TA100, without S9 activation, 2.0 mg/plate

CN1CCCC1CCNC(=O)c1cn2c3c(c(N4CCC(c5cnccn5)C4)c(F)cc3c1=O)Oc1cc3ccccc3cc1-2 (stereo not shown) [CX-3543]
mutagenicity (reversion rates) ([1]; S. typhimurium, with and without S9): non-mutagenic | FI [1, 3]: 1.5 | TA100 colony count (Rep 1-3) [1, 3]: 175 and 177 | TA100 colony count, Mean [1, 3]: 175.7 | FI [1, 4]: 1.5 | TA100 colony count (Rep 1-3) [1, 4]: 185 and 177 and 189 | TA100 colony count, Mean [1, 4]: 183.7 | FI [1, 5]: 1.6 | TA100 colony count (Rep 1-3) [1, 5]: 182 and 190 and 193 | TA100 colony count, Mean [1, 5]: 188.3 | FI [1, 6]: 1.4 | TA100 colony count (Rep 1-3) [1, 6]: 175 and 147 and 168 | TA100 colony count, Mean [1, 6]: 163.3 | FI [1, 7]: 1.1 | TA100 colony count (Rep 1-3) [1, 7]: 111 and 131 and 137 | TA100 colony count, Mean [1, 7]: 126.3 | FI [1, 8]: 1.1 | TA100 colony count (Rep 1-3) [1, 8]: 153 and 144 and 135 | TA100 colony count, Mean [1, 8]: 144.0 | FI [1, 9]: 1.1 | TA100 colony count (Rep 1-3) [1, 9]: 154 and 148 and 146 | TA100 colony count, Mean [1, 9]: 149.3 | FI [1, 10]: 1.1 | TA100 colony count (Rep 1-3) [1, 10]: 161 and 154 and 137 | TA100 colony count, Mean [1, 10]: 150.7 | FI [1, 11]: 1.0 | TA100 colony count (Rep 1-3) [1, 11]: 147 and 120 and 134 | TA100 colony count, Mean [1, 11]: 133.7 | FI [1, 12]: 0.9 | TA100 colony count (Rep 1-3) [1, 12]: 126 and 117 and 122 | TA100 colony count, Mean [1, 12]: 121.7 | % CA 3 HRS ([2]; CHO, 0.0016 mg/mL): 6.0% | FI 3 HRS ([2]; CHO, 0.0016 mg/mL): 2.0 | % CA 3 HRS + S9 ([2]; CHO, 0.0016 mg/mL): 4.5% | FI 3 HRS + S9 ([2]; CHO, 0.0016 mg/mL): 1.5 | % CA 20 HRS ([2]; CHO, 0.0016 mg/mL): 4.5% | FI 20 HRS ([2]; CHO, 0.0016 mg/mL): 1.5 | % CA 3 HRS ([2]; CHO, 0.005 mg/mL): 5.5% | FI 3 HRS ([2]; CHO, 0.005 mg/mL): 1.8 | % CA 3 HRS + S9 ([2]; CHO, 0.005 mg/mL): 8.4% | FI 3 HRS + S9 ([2]; CHO, 0.005 mg/mL): 2.8 | % CA 20 HRS ([2]; CHO, 0.005 mg/mL): 5.0% | FI 20 HRS ([2]; CHO, 0.005 mg/mL): 1.7 | % CA 3 HRS + S9 ([2]; CHO, 0.016 mg/mL): 9.0% | FI 3 HRS + S9 ([2]; CHO, 0.016 mg/mL): 2.0 | mutagenicity (chromosome aberrations) ([2]; CHO, 3 h, 3 h + S9, 20 h): not mutagenic | % MI 3 HRS + S9 ([2]; 0.0016 mg/mL): 12% | % MI 20 HRS ([2]; 0.0016 mg/mL): 8% | % MI ([2]; 0.0016 mg/mL): 6% | % MI 3 HRS + S9 ([2]; 0.005 mg/mL): 9% | % MI 20 HRS ([2]; 0.005 mg/mL): 4% | % MI ([2]; 0.005 mg/mL): 8% | % MI 3 HRS + S9 ([2]; 0.016 mg/mL): 1% | % MI 20 HRS ([2]; 0.016 mg/mL): 0% | % MI ([2]; 0.016 mg/mL): 1% | % MI 3 HRS + S9 ([2]; 0.05 mg/mL): 0% | % MI 20 HRS ([2]; 0.05 mg/mL): 0% | % MI ([2]; 0.05 mg/mL): 0% | % MI 3 HRS + S9 ([2]; 0.16 mg/mL): 0% | % MI 20 HRS ([2]; 0.16 mg/mL): 1% | % MI ([2]; 0.16 mg/mL): 0% | % MI 3 HRS + S9 ([2]; 0.5 mg/mL): 0% | % MI 20 HRS ([2]; 0.5 mg/mL): 0% | % MI ([2]; 0.5 mg/mL): 0%
